{"source": "patent US11220548B2", "about": "“Treatment of C1013G/CXCR4-associated Waldenstrom's macroglobulinemia with an anti-CXCR4 antibody” (BRISTOL-MYERS SQUIBB COMPANY, priority 2013, dated 2022)", "key": {"[1]": {"system": "WM cell lines (MWCL.1; BCWM.1)", "experiment": "[3H]-thymidine uptake proliferation assay in presence of primary WM BM-MSCs", "format": "cell-based, human", "conditions": "48 h", "description": "FIGS. 15A-15C: FIGS. 15A-15C show the effect of BMS-936564 on adhesion and proliferation of WM cells in vitro. WM cell lines were treated with BMS-936564 for 4 h and subsequently tested for adhesion to primary WM BM-MSCs. […] WM cell lines, MWCL.1 (FIG. 15B) and BCWN.1 (FIG. 15C) were cultured with control media and with BMS-936564 for 48 h in the presence or absence of primary WM BMMSCs. Cell proliferation was assessed using a [^3H]-thymidine uptake assay. Bars indicate standard deviations. P indicates P value. All data represent mean (±sd) of triplicate experiments. The CXCR4 antagonist, […] (Sigma-Aldrich, St. Louis, Mo.), was used as control."}, "BCWM.1 cells": {"system": "BCWM.1 cells", "experiment": "Western blot of survival signaling in WM cells", "format": "cell-based, human", "conditions": "6 h, cultured in the context of BM-MSCs, increasing concentrations", "description": "BCWM.1 cells were exposed to BMS-936564 for 6 h in presence or absence of primary WM BM-MSCs. The BCWM.1 cells were then harvested and cell lysates were subjected to western blot analysis using anti-phospho(p)-ERK1/2, anti-ERK1/2, anti-p-Akt, anti-Akt, anti-p-SRC, and anti-SRC antibodies. BCWM.1 cells cultured in the absence of WM BM-MSCs were used as control. Bars indicate standard deviation.\n(§1) Protein lysates were obtained from WM cells by homogenization under nondenaturing conditions in lysis buffer (Cell Signaling Technology, Beverly, Mass.) supplemented with 5 mM NaF, 2 mM Na3VO4, 1 mM PMSF ([…]), 5 μg/mL leupeptine, and 5 μg/mL aprotinin. Whole-cell lysates were subjected to sodium dodecyl sulfate-polyacrylamide gel electrophoresis (SDS-PAGE) and transferred to polyvinylidene difluoride (PVDF) membrane (Bio-Rad Laboratories, Hercules, Calif.). The antibodies used for immunoblotting included: anti-phospho(p)-ERK, anti-ERK, anti-p-Akt, anti-Akt, anti-p-Src, anti-Src, anti-caspase-9, anti-PARP, anti-p-β-catenin, anti-β-catenin, anti-p-GSK3, anti-GAPDH and anti-α-tubulin antibodies (Cell Signaling, Danvers, Mass.).\nTo dissect the possible role of BMS-936564 in affecting WM signaling, WM cells were cultured in the absence or presence of primary WM BM-MSCs, with increasing concentrations of the anti-CXCR4 antibody."}, "[2]": {"system": "C1013G/CXCR4 variant-harboring BCWM.1 cells", "experiment": "In vivo dissemination of C1013G/CXCR4-mutated WM cells (immunohistochemistry for human CD20 and CXCR4)", "parameters": "species or system SCID/Bg mice", "conditions": "10 mg/kg intraperitoneally, 3-4 times per week for 3 weeks", "description": "FIGS. 20A-20E: FIGS. 20A-20E show representative histochemical images of the effect of BMS-936564 on C1013G/CXCR4-mutated cells in WM cells in vivo. SCID/Bg mice were injected intravenously with either C1013G/CXCR4 variant-harboring BCWM.1 cells or empty/control vector-infected cells (control cells). Mice were treated with either BMS-936564 or control antibody (10 mg/kg, intraperitoneally; ×3/4/week; mice: 5/group). After 3 weeks mice were euthanized and organs harvested. Hematoxylin-eosin immunohistochemical staining for human CD20 and CXCR4 were performed on femur BM (FIG. 20A), liver (FIG. 20B), kidney (FIG. 20C), lung (FIG. 20D), and lymph nodes (FIG. 20E) (Nikon, Melville, N.Y.; 4×, 10× or 20× magnifications are shown).\nMurine tissues (BM, liver, kidney, lung and lymph nodes) were analyzed and quantified for the expression of human CD20 and human CXCR4. These tissues were fixed in formalin 10%, ethanol 70% was used as storage solution; and embedded in paraffin. Paraffin sections were incubated with anti-human-CXCR4 (Abcam, Cambridge, Mass.), and anti-human-CD20 (Dako, Carpinteria, Calif.) monoclonal antibodies, using the Leica Bond III automated staining platform (Leica Biosystems, Buffalo Grove, Ill.). […] Quantification of CD20 and CXCR4 staining was performed using NIS Elements software (Nikon, Melville, N.Y.). […]"}, "[3]": {"system": "C1013G/CXCR4-infected BCWM.1 cells", "experiment": "Adhesion of C1013G/CXCR4-infected cells to primary WM BM-MSCs", "format": "cell-based, human", "conditions": "in the context of the BM microenvironment", "description": "(§2) FIGS. 21A-21D: FIGS. 21A-21D show BMS-936564 targets C1013G/CXCR4-mutated cells in WM cells in the context of BM. C1013G/CXCR4-infected BCWM.1 cells were tested for their migratory properties using a transwell migration assay. Cells were exposed to increasing concentrations of BMS-936564 and migration was determined after 5 h. The transwell migration assay was performed in presence of either primary WM BM-MSCs (FIG. 21A) or SDF-1α (FIG. 21B). In both cases, BMS-936564-dependent inhibition of WM cell migration was observed. C1013G/CXCR4-infected BCWM.1 cells were treated with BMS-936564/for 4 h and subsequently tested for adhesion to primary WM BM-MSCs. […] C1013G/CXCR4-infected BCWM.1 cells were cultured with control media and with BMS-936564 for 48 h in the presence or absence of primary WM BM-MSCs. Cell proliferation was assessed using [^3H]-thymidine uptake assay (FIG. 21D). Bars indicate standard deviations. P indicates P value. All data represent mean (±sd) of triplicate experiments. […]."}, "[4]": {"system": "C1013G/CXCR4-infected BCWM.1 cells", "experiment": "Transwell migration assay of C1013G/CXCR4-infected cells", "format": "cell-based, human", "conditions": "in the context of the BM microenvironment", "description": "as §2"}, "[5]": {"system": "C1013G/CXCR4-mutated cells", "experiment": "Western blot of survival and apoptosis-related proteins in C1013G/CXCR4-WM cells", "format": "cell-based, human", "description": "FIGS. 22A-22C: FIGS. 22A-22C show the effect of BMS-936564 on survival and apoptosis-related signal proteins in C1013G/CXCR4-WM cells. C1013G/CXCR4-mutated cells were cultured in presence or absence of BMS-936564 for 6 h, showing inhibition of phospho(p)-ERK, ERK, p-Akt, Akt, p-Src (FIG. 22A). Similarly, cells were exposed to the compound for 14 h, and induction of apoptosis-related pathways was observed (p-GSK3β, and p-β-catenin (FIG. 22B), and PARP and Caspase-9 (FIG. 22C)).\nas §1"}}, "data": [{"substance": "BMS-936564: fully human anti-CXCR4 monoclonal antibody; VH SEQ ID NO: 25, VL SEQ ID NO: 29", "values": [{"measurement": "WM cell proliferation in presence of WM BM-MSCs", "setting": "[1]", "result": "inhibition"}, {"measurement": "p-Akt, p-ERK, and p-Src in WM cells", "setting": "BCWM.1 cells", "result": "drug-dependent inhibition"}, {"measurement": "involvement of lymph nodes", "setting": "[2]", "result": "absent"}, {"measurement": "CXCR4+/CD20+ cell infiltration in femur, liver, kidney and lung", "setting": "[2]; vs control antibody-treated mice", "result": "significant reduction"}, {"measurement": "targeting adhesion of CXCR4-mutated cells", "setting": "[3]", "result": "equally active"}, {"measurement": "targeting migration of CXCR4-mutated cells", "setting": "[4]", "result": "equally active"}, {"measurement": "p-ERK, p-Akt, and p-Src in WM cells harboring the C1013G/CXCR4 mutation", "setting": "[5]; 6 h", "result": "dose-dependent inhibition"}, {"measurement": "GSK3-β/β-catenin signaling in CXCR4-mutated WM cells", "setting": "[5]; 14 h", "result": "up-regulation of p-GSK3-β/p-β-catenin and β-catenin degradation"}, {"measurement": "caspase-9- and PARP-cleavage in CXCR4-mutated WM cells", "setting": "[5]; 14 h", "result": "increased"}]}]}
